# Experimental data reported in ChEMBL document CHEMBL1145498, “A systematic interaction map of validated kinase inhibitors with Ser/Thr kinases” (Proc Natl Acad Sci U S A, 2007).
# Molecular target: Cyclin-dependent kinase 6 (Homo sapiens) (UniProt Q00534)
# Sequence (Q00534 whole entry): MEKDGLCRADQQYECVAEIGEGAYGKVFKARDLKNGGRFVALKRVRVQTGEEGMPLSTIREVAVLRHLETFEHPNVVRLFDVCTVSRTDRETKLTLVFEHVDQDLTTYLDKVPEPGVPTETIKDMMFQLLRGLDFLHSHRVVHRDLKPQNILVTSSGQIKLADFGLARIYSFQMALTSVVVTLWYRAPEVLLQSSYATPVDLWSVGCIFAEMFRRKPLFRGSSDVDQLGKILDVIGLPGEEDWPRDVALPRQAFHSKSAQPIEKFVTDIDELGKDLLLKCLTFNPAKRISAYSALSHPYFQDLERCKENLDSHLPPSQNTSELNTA
row,Compound,ΔTm [°C]
1,C[C@@H]1C[C@H]2O[C@@H]2/C=C\C=C\C(=O)Cc2c(Cl)c(O)cc(O)c2C(=O)O1 [RADICICOL],-0.5
2,Brc1c(Br)c(Br)c2[nH]nnc2c1Br [TETRABROMOBENZOTRIAZOLE],0.3
3,O=C1C(Cl)=C(N2C(=O)CCC2=O)C(=O)c2ccccc21,1.6

# Molecular target: Mitogen-activated protein kinase 11 (Homo sapiens, UniProt Q15759)
# Sequence (Q15759 whole entry): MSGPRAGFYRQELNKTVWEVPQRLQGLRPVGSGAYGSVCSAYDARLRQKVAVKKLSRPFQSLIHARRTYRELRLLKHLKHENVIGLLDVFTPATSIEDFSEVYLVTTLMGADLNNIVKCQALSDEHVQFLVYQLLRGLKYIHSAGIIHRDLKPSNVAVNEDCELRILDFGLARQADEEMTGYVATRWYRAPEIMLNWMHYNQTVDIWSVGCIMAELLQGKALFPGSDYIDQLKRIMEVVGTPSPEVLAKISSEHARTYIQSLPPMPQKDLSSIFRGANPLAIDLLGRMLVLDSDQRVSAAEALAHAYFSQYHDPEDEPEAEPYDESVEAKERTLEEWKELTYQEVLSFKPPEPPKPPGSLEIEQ
row,Compound,ΔTm [°C]
1,C[C@@H]1C[C@H]2O[C@@H]2/C=C\C=C\C(=O)Cc2c(Cl)c(O)cc(O)c2C(=O)O1 [RADICICOL],0.7
2,Brc1c(Br)c(Br)c2[nH]nnc2c1Br [TETRABROMOBENZOTRIAZOLE],0.8
3,O=C1C(Cl)=C(N2C(=O)CCC2=O)C(=O)c2ccccc21,8.6

# Molecular target: Serine/threonine-protein kinase 26 (Homo sapiens) (UniProt Q9P289)
# Sequence (Q9P289 2-416 limits assumed): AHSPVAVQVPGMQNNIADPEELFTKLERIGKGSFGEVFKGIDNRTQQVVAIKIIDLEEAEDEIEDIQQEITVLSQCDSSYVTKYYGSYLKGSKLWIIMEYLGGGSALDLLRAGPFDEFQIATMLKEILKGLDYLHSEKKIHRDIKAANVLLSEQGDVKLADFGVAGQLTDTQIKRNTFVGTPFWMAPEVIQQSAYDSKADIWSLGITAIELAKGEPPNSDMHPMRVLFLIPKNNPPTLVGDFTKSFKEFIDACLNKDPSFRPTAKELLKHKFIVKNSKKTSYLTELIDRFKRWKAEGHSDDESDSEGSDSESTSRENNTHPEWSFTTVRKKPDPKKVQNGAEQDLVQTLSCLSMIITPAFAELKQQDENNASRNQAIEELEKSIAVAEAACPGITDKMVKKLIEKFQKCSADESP
row,Compound,ΔTm [°C]
1,C[C@@H]1C[C@H]2O[C@@H]2/C=C\C=C\C(=O)Cc2c(Cl)c(O)cc(O)c2C(=O)O1 [RADICICOL],0.9
2,Brc1c(Br)c(Br)c2[nH]nnc2c1Br [TETRABROMOBENZOTRIAZOLE],1.3
3,O=C1C(Cl)=C(N2C(=O)CCC2=O)C(=O)c2ccccc21,-2.1

# Molecular target: Glycogen synthase kinase-3 beta (Homo sapiens, UniProt P49841)
# Sequence (P49841 whole entry, looked up): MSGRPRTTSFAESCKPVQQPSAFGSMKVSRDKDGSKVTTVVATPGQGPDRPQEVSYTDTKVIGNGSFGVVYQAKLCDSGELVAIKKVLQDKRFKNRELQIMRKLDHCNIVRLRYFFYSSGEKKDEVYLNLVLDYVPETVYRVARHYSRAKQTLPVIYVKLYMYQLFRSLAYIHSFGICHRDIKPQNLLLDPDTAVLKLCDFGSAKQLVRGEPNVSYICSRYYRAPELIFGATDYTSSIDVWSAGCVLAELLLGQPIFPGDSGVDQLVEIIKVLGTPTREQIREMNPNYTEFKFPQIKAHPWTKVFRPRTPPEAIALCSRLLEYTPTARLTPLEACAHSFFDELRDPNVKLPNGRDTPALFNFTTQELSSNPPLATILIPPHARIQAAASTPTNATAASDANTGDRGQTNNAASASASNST
row,Compound,ΔTm [°C]
1,C[C@@H]1C[C@H]2O[C@@H]2/C=C\C=C\C(=O)Cc2c(Cl)c(O)cc(O)c2C(=O)O1 [RADICICOL],-0.3
2,Brc1c(Br)c(Br)c2[nH]nnc2c1Br [TETRABROMOBENZOTRIAZOLE],2.4
3,O=C1C(Cl)=C(N2C(=O)CCC2=O)C(=O)c2ccccc21,-3.5

# Molecular target: Cyclin-dependent kinase-like 1 (Homo sapiens) (UniProt Q00532)
# Sequence (Q00532 whole entry): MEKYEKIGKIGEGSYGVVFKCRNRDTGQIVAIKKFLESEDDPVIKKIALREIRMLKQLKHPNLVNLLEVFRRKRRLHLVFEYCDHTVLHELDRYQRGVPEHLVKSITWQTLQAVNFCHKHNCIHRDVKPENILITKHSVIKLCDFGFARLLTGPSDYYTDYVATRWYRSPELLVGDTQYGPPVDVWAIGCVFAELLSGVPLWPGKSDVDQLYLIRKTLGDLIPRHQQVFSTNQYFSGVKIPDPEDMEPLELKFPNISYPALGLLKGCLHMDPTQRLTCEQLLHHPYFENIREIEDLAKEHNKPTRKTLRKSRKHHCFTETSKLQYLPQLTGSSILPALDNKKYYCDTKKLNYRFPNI
row,Compound,ΔTm [°C]
1,C[C@@H]1C[C@H]2O[C@@H]2/C=C\C=C\C(=O)Cc2c(Cl)c(O)cc(O)c2C(=O)O1 [RADICICOL],-0.2
2,Brc1c(Br)c(Br)c2[nH]nnc2c1Br [TETRABROMOBENZOTRIAZOLE],-0.4
3,O=C1C(Cl)=C(N2C(=O)CCC2=O)C(=O)c2ccccc21,-0.5

# Molecular target: T1, 3-phosphoinositide-dependent protein kinase 1 (Homo sapiens) (UniProt O15530)
# T1 sequence (whole entry): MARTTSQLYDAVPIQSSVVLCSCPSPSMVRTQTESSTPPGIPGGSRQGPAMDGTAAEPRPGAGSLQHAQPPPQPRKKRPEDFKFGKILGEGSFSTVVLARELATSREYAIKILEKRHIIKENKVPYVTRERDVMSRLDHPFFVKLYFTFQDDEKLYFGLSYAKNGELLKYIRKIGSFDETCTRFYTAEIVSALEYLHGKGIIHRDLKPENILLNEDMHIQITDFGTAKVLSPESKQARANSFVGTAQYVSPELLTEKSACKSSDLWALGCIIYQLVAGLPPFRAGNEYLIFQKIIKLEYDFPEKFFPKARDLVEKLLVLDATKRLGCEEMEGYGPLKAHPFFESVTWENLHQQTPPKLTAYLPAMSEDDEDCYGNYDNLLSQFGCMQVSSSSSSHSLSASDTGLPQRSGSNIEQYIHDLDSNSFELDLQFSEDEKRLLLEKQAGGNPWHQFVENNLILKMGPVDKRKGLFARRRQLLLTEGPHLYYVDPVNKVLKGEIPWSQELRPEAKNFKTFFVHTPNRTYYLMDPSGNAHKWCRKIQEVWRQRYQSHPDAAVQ
row,Compound,ΔTm [°C]
1,C[C@@H]1C[C@H]2O[C@@H]2/C=C\C=C\C(=O)Cc2c(Cl)c(O)cc(O)c2C(=O)O1 [RADICICOL],0.2
2,Brc1c(Br)c(Br)c2[nH]nnc2c1Br [TETRABROMOBENZOTRIAZOLE],-4.4
3,O=C1C(Cl)=C(N2C(=O)CCC2=O)C(=O)c2ccccc21,-1.9

# Molecular target: Calcium/calmodulin-dependent protein kinase type 1D (Homo sapiens) (UniProt Q8IU85)
# Sequence (Q8IU85 whole entry, looked up): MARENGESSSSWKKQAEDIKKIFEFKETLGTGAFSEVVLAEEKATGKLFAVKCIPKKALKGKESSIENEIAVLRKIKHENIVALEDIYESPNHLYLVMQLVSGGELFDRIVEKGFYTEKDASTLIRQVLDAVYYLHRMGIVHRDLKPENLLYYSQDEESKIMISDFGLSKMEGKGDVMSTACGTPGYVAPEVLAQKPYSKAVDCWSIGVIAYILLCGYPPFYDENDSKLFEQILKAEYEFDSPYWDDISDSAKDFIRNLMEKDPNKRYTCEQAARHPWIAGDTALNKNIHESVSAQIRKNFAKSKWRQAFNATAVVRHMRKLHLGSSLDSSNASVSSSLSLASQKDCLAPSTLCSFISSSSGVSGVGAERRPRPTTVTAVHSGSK
row,Compound,ΔTm [°C]
1,C[C@@H]1C[C@H]2O[C@@H]2/C=C\C=C\C(=O)Cc2c(Cl)c(O)cc(O)c2C(=O)O1 [RADICICOL],0
2,Brc1c(Br)c(Br)c2[nH]nnc2c1Br [TETRABROMOBENZOTRIAZOLE],-1.6
3,O=C1C(Cl)=C(N2C(=O)CCC2=O)C(=O)c2ccccc21,-9.6

# Molecular target: Ribosomal protein S6 kinase alpha-3 (Homo sapiens) (UniProt P51812)
# Sequence (P51812 whole entry): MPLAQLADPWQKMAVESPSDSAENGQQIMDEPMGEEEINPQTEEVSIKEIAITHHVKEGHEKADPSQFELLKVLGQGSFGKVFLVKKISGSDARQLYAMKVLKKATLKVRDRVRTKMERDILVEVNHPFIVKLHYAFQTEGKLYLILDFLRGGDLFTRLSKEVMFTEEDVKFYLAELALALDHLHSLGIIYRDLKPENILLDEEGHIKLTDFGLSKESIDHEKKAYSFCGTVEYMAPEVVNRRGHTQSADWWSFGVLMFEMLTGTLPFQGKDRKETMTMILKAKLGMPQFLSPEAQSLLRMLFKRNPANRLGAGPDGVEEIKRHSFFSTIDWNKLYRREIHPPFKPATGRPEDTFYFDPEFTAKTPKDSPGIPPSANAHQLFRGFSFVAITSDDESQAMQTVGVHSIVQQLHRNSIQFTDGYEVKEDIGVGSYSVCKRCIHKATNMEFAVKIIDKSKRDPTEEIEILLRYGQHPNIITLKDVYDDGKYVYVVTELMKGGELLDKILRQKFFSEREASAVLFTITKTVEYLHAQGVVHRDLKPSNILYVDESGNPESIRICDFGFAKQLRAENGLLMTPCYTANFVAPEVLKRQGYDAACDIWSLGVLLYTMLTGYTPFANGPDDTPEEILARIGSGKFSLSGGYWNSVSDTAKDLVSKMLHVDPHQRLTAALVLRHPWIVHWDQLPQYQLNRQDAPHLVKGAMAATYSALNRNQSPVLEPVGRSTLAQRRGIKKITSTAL
row,Compound,ΔTm [°C]
1,C[C@@H]1C[C@H]2O[C@@H]2/C=C\C=C\C(=O)Cc2c(Cl)c(O)cc(O)c2C(=O)O1 [RADICICOL],0.9
2,Brc1c(Br)c(Br)c2[nH]nnc2c1Br [TETRABROMOBENZOTRIAZOLE],1.7
3,O=C1C(Cl)=C(N2C(=O)CCC2=O)C(=O)c2ccccc21,-2.4

# Molecular target: Dual specificity protein kinase CLK1 (Homo sapiens) (UniProt P49759)
# Sequence (P49759 whole entry, looked up): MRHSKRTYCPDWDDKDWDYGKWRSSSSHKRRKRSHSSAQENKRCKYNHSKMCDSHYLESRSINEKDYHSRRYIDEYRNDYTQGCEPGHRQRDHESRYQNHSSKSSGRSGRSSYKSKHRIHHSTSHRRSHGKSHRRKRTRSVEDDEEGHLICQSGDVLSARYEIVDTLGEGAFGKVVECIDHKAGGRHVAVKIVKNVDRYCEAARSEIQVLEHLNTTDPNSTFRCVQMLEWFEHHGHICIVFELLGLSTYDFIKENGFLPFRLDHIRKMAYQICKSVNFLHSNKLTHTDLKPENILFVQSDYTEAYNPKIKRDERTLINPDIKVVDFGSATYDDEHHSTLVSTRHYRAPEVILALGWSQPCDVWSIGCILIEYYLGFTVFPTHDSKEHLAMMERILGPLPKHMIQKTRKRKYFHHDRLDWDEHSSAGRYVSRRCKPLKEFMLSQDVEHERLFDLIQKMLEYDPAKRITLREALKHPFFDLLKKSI
row,Compound,ΔTm [°C]
1,C[C@@H]1C[C@H]2O[C@@H]2/C=C\C=C\C(=O)Cc2c(Cl)c(O)cc(O)c2C(=O)O1 [RADICICOL],0
2,Brc1c(Br)c(Br)c2[nH]nnc2c1Br [TETRABROMOBENZOTRIAZOLE],3.6
3,O=C1C(Cl)=C(N2C(=O)CCC2=O)C(=O)c2ccccc21,-1.1

# Molecular target: T2, Serine/threonine-protein kinase Nek2 (Homo sapiens) (UniProt P51955)
# T2 sequence (whole entry): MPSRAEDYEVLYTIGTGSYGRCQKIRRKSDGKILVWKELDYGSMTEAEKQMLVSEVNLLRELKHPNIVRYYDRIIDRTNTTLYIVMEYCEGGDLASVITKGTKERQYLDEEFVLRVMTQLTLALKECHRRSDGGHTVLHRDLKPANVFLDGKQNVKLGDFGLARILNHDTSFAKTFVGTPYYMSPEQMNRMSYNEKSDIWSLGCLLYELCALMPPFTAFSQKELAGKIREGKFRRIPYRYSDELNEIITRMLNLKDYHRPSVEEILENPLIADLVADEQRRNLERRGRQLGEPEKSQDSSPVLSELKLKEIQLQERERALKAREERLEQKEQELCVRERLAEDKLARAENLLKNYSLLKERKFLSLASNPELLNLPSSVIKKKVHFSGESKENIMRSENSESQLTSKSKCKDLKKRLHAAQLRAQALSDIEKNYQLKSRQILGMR
row,Compound,ΔTm [°C]
1,C[C@@H]1C[C@H]2O[C@@H]2/C=C\C=C\C(=O)Cc2c(Cl)c(O)cc(O)c2C(=O)O1 [RADICICOL],0.2
2,Brc1c(Br)c(Br)c2[nH]nnc2c1Br [TETRABROMOBENZOTRIAZOLE],-0.1
3,O=C1C(Cl)=C(N2C(=O)CCC2=O)C(=O)c2ccccc21,2.5

# Molecular target: Serine/threonine-protein kinase PAK 5 (Homo sapiens) (UniProt Q9P286)
row,Compound,ΔTm [°C]
1,C[C@@H]1C[C@H]2O[C@@H]2/C=C\C=C\C(=O)Cc2c(Cl)c(O)cc(O)c2C(=O)O1 [RADICICOL],0.6
2,Brc1c(Br)c(Br)c2[nH]nnc2c1Br [TETRABROMOBENZOTRIAZOLE],0.2
3,O=C1C(Cl)=C(N2C(=O)CCC2=O)C(=O)c2ccccc21,-1.3

# Molecular target: Serine/threonine-protein kinase 25 (Homo sapiens) (UniProt O00506)
# Sequence (O00506 whole entry, looked up): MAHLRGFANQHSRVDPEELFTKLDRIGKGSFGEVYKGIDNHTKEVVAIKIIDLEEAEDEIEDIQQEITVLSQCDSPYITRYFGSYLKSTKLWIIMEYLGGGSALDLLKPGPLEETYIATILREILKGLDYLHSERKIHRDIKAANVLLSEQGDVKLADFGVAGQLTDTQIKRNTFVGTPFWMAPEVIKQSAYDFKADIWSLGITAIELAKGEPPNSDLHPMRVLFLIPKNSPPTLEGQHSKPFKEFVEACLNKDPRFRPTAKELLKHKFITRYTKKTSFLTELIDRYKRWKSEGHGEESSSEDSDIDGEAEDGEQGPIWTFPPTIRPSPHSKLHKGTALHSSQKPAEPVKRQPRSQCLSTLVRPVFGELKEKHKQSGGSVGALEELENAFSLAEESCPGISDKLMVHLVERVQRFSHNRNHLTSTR
row,Compound,ΔTm [°C]
1,C[C@@H]1C[C@H]2O[C@@H]2/C=C\C=C\C(=O)Cc2c(Cl)c(O)cc(O)c2C(=O)O1 [RADICICOL],-0.6
2,Brc1c(Br)c(Br)c2[nH]nnc2c1Br [TETRABROMOBENZOTRIAZOLE],0.7
3,O=C1C(Cl)=C(N2C(=O)CCC2=O)C(=O)c2ccccc21,-0.5

# Molecular target: Serine/threonine-protein kinase Chk2 (Homo sapiens, UniProt O96017)
# Sequence (O96017 whole entry): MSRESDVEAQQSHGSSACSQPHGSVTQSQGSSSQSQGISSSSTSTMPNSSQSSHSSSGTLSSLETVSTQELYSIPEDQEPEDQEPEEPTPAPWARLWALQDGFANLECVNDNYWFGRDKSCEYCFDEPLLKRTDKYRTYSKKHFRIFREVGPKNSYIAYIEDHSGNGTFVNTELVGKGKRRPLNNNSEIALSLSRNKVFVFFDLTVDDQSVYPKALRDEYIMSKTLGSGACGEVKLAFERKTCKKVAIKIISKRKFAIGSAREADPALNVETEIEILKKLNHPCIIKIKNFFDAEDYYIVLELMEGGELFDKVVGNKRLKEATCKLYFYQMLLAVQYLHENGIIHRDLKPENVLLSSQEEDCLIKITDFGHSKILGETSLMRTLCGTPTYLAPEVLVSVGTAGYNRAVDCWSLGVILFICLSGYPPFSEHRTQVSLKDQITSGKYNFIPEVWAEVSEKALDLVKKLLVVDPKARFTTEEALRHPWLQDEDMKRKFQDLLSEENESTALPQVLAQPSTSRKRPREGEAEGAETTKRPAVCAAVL
row,Compound,ΔTm [°C]
1,C[C@@H]1C[C@H]2O[C@@H]2/C=C\C=C\C(=O)Cc2c(Cl)c(O)cc(O)c2C(=O)O1 [RADICICOL],1.6
2,Brc1c(Br)c(Br)c2[nH]nnc2c1Br [TETRABROMOBENZOTRIAZOLE],0.5
3,O=C1C(Cl)=C(N2C(=O)CCC2=O)C(=O)c2ccccc21,5.6

# Molecular target: Serine/threonine-protein kinase pim-1 (Homo sapiens) (UniProt P11309)
# Sequence (P11309 whole entry, looked up): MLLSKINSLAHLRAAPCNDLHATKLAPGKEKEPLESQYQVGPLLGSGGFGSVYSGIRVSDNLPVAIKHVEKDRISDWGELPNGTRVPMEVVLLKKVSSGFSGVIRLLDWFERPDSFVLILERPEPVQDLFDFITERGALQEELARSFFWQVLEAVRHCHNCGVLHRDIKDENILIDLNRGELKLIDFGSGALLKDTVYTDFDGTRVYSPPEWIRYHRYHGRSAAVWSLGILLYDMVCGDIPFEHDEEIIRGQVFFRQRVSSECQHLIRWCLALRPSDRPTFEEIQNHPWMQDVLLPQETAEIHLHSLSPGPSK
row,Compound,ΔTm [°C]
1,C[C@@H]1C[C@H]2O[C@@H]2/C=C\C=C\C(=O)Cc2c(Cl)c(O)cc(O)c2C(=O)O1 [RADICICOL],-0.1
2,Brc1c(Br)c(Br)c2[nH]nnc2c1Br [TETRABROMOBENZOTRIAZOLE],3.7
3,O=C1C(Cl)=C(N2C(=O)CCC2=O)C(=O)c2ccccc21,0.9

# Molecular target: T3, Serine/threonine-protein kinase PLK4 (Homo sapiens) (UniProt O00444)
# T3 sequence (whole entry): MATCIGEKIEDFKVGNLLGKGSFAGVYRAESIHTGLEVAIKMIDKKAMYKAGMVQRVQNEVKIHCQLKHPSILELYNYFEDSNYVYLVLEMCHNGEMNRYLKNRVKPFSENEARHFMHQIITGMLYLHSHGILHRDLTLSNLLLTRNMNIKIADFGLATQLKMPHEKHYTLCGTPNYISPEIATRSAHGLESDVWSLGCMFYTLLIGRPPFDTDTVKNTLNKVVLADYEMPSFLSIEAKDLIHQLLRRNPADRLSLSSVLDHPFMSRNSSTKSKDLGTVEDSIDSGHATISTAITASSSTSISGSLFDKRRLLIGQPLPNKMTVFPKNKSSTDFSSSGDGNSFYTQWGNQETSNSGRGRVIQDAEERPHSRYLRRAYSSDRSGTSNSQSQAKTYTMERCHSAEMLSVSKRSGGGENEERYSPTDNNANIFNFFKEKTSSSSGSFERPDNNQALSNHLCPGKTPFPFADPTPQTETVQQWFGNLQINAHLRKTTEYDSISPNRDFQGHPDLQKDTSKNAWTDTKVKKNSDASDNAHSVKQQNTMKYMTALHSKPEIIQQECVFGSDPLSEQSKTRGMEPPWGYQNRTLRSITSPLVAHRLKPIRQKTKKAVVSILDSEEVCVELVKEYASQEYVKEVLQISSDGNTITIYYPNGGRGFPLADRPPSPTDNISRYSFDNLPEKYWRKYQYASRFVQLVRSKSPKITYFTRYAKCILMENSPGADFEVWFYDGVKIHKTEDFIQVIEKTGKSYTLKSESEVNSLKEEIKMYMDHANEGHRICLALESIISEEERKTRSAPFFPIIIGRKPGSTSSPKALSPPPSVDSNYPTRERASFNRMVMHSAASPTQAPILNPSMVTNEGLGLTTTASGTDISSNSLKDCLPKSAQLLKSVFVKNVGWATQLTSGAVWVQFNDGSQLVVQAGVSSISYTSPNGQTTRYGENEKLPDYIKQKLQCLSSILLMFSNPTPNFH
row,Compound,ΔTm [°C]
1,C[C@@H]1C[C@H]2O[C@@H]2/C=C\C=C\C(=O)Cc2c(Cl)c(O)cc(O)c2C(=O)O1 [RADICICOL],0.5
2,Brc1c(Br)c(Br)c2[nH]nnc2c1Br [TETRABROMOBENZOTRIAZOLE],4.4
3,O=C1C(Cl)=C(N2C(=O)CCC2=O)C(=O)c2ccccc21,-3.7

# Molecular target: STE20-like serine/threonine-protein kinase (Homo sapiens) (UniProt Q9H2G2)
row,Compound,ΔTm [°C]
1,C[C@@H]1C[C@H]2O[C@@H]2/C=C\C=C\C(=O)Cc2c(Cl)c(O)cc(O)c2C(=O)O1 [RADICICOL],0.4
2,Brc1c(Br)c(Br)c2[nH]nnc2c1Br [TETRABROMOBENZOTRIAZOLE],1.2
3,O=C1C(Cl)=C(N2C(=O)CCC2=O)C(=O)c2ccccc21,-0.6
